Source: article PMC6225165, “Design and Synthesis of Novel Dehydroepiandrosterone Analogues as Potent Antiproliferative Agents” (Molecules : A Journal of Synthetic Chemistry and Natural …, 2018)
Like-named read-outs stand apart in the source and are kept apart here.

Key:
[1] = system: HepG-2 cells; experiment: Cell cycle analysis by flow cytometry (PI); format: cell-based, human; conditions: 48 h, control 11.47%
Method: HepG-2 cells were plated in […] (5.0 × 10^5 cells per well) and incubated at 37 °C for 12 h. Exponentially growing cells were then incubated with compound 2n at different concentrations (5, 10 and 20 μM). After 48 h, untreated cells (control) or cells treated with compound 2n were centrifuged at 1000 rpm (177 g) for 10 min, and then fixed in 70% ethanol at −20 °C for at least 24 h. The cells were subsequently resuspended in phosphate-buffered saline (PBS) containing 0.1mg mL^−1 RNase A and 5 μg·mL^−1 propidium iodide (PI). The cellular DNA content for the cell cycle distribution analysis was measured by flow cytometry using a FACS Calibur flow cytometer with Cell Quest software (Becton-Dickinson, Franklin Lakes, NJ, USA), plotting at least 30,000 events per sample. The percentage of cells in the G1, S and G2 phases of the cell cycle were determined using the ModFit LT V4.0 software package (Verity Software, Topsham, ME, USA).

[2] = system: Hela; experiment: MTT antiproliferative assay, Hela; format: cell-based, human; conditions: Homo sapiens, 48 h, MTT
Outline: (§1)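 9 × 10^3 cells/well, 24 h attach; cpd 1–100 μM (4 concs) × 48 h, 37 °C, 5% CO2, DMEM/RPMI1640 + 10% FBS; MTT 2 mg·mL^−1 final, 4 h; DMSO; OD 492 nm; IC50 from % inhibition.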

[3] = system: A549; experiment: MTT antiproliferative assay, A549; format: cell-based, human; conditions: Homo sapiens, A549, 48 h, MTT
Outline: as §1

[4] = system: MCF-7; experiment: MTT antiproliferative assay, MCF-7; format: cell-based, human
Outline: as §1

[5] = system: HepG-2; experiment: MTT antiproliferative assay, HepG-2; format: cell-based, human
Outline: as §1

[6] = system: HCT116; experiment: MTT antiproliferative assay, HCT116; format: cell-based, human
Outline: as §1

[7] = system: human normal liver (L02) cells; experiment: MTT assay on normal cell line L02; format: cell-based
[8] = system: BEL7402; experiment: MTT antiproliferative assay, BEL7402; format: cell-based, human; conditions: Homo sapiens, Bel-7402, 48 h, MTT
Outline: as §1

[9] = system: HepG-2 cells; experiment: Apoptosis analysis by flow cytometry (annexin V-FITC/PI); format: cell-based, human; conditions: 48 h, control 13.65%
Method: Apoptosis was detected using an Apoptosis Detection Kit (Invitrogen, Eugene, OR, USA). In brief, cells were cultured in […] (5.0 × 10^5 cells per well) and incubated at 37 °C for 12 h. Cells with exponential growth were then incubated with compound 2n at different concentrations (5, 10 and 20 μM). Following 48 h of incubation, the cells were collected, washed twice with PBS and once with 1binding buffer, and then stained with […] of annexin V-FITC and […] of PI (5 mg·mL^−1) in 1 × binding buffer for 30 min at 20 °C in the dark. Apoptotic cells were enumerated using a FACSCalibur flow cytometer with Cell Quest software (Becton–Dickinso, Franklin Lakes, NJ, USA).

[10] = system: A549; conditions: literature lead, Figure 1; cited from earlier work
[11] = system: AGS; conditions: literature lead, Figure 1; cited from earlier work
[12] = system: HCT116; set-up: method as in PMID 26854375; conditions: literature lead, Figure 1; cited from earlier work
[13] = system: KB; set-up: method as in PMID 23635011; conditions: literature lead, Figure 1; cited from earlier work
[14] = IC50 on normal cells (L02)/IC50 on tumour cells

SMILES: CC12CCC3C(CC=C4CC(O)CCC43C)C1C/C(=C\c1cn(-c3ccc(I)cc3)nn1)C2=O (stereo not drawn) [Compound 2n, (E)-3-hydroxy-16-((1-(4-iodophenyl)-1H-1,2,3-triazol-4-yl)methylene)-10,13-dimethyl-1,3,4,7,8,9,10,11,12,13,15,16-dodecahydro-2H-cyclopenta[a]phenanthren-17(14H)-one]
- proportion of cells in the G2 phase ([1]; HepG-2, 5.0 µM): 11.14%
- proportion of cells in the G2 phase ([1]; HepG-2, 10.0 µM): 0.41%
- proportion of cells in the G2 phase ([1]; HepG-2, 20.0 µM): 0.0%
- IC50 ([2]; HeLa): > 100 µM
- inhibition at 100 µM ([2]; 100 μM, read-out: % Growth Inhibition at 100 μM Hela): 17.3%
- inhibition at 100 µM ([3]; 100 μM, read-out: % Growth Inhibition at 100 μM A549): 46.8%
- IC50 [3]: > 100 µM
- inhibition at 100 µM ([4]; Homo sapiens, MCF7, 100 μM, 48 h, MTT, read-out: % Growth Inhibition at 100 μM MCF-7): 81.3%
- IC50 ([4]; Homo sapiens, MCF7, 48 h, MTT): 9.18 µM
- Selectivity Index MCF-7 [4, 14]: >10.89
- inhibition at 100 µM ([5]; Homo sapiens, HepG2, 100 μM, 48 h, MTT, read-out: % Growth Inhibition at 100 μM HepG-2): 83%
- IC50 ([5]; Homo sapiens, HepG2, 48 h, MTT): 9.1 µM
- Selectivity Index HepG-2 [5, 14]: >10.99
- inhibition at 100 µM ([6]; Homo sapiens, HCT-116, 100 μM, 48 h, MTT, read-out: % Growth Inhibition at 100 μM HCT116): 65.5%
- IC50 ([6]; Homo sapiens, HCT-116, 48 h, MTT): 31 µM
- Selectivity Index HCT116 [6, 14]: >3.22
- inhibition at 100 µM ([7]; Homo sapiens, L02, 100 μM, 48 h, MTT, normal cells, read-out: % Growth Inhibition at 100 μM L02): 34.2%
- IC50 ([7]; Homo sapiens, L02, 48 h, MTT, normal cell line): > 100 µM
- toxicity in human normal liver (L02) cells ([7]; in words): not toxic
- inhibition at 100 µM ([8]; 100 μM, read-out: % Growth Inhibition at 100 μM BEL7402): < 5%
- IC50 [8]: > 100 µM
- percentage of total apoptotic cells (right quadrants) ([9]; HepG-2, 5.0 µM): 22.24%
- percentage of total apoptotic cells (right quadrants) ([9]; HepG-2, 10.0 µM): 27.24%

SMILES: COc1ccccc1-n1cc(COC(=O)C23CCC(C)C(C)C2C2=CCC4C5(C)CCC(=O)C(C)(C)C5CCC4(C)C2(C)CC3)nn1 (stereo not drawn) [Compound A]
- IC50 [10]: < 0.1 µM

SMILES: O=c1ccc2cc3ccoc3c(OCc3cn(-c4ccc(C(F)(F)F)cc4)nn3)c2o1 [Compound B]
- IC50 [11]: 7.5 µM

SMILES: CC1CCC2(C(=O)O)CCC3(C)C(=CCC4C5(C)CC(=Cc6cc(O)ccc6O)C(=O)C(C)(C)C5CCC43C)C2C1C (stereo not drawn) [Compound C]
- IC50 [12]: < 0.1 µM

SMILES: C[C@]12CC[C@H](O)CC1=CCC1C2CC[C@]2(C)C(=O)/C(=C/c3cccc(Cl)c3)CC12 (stereo partly drawn) [Compound D]
- IC50 [13]: 0.6 µM
